Data: patent US20160287545A1, “COMPOUND PARTICULARLY FOR TREATING DEPRESSION AND ANXIETY” (priority 2012, published 2016)

Columns and labels:
CD1 mice = experiment: swimming test in CD1 mice, antidepressant action of inhaled terpenes versus imipramine; assay type: in vivo; conditions: for isoeffect dose per body weight taking into account mean absorption factor (60%): 700x0.6, inhaling; for isoeffect dose with respect to imipramine: individual single inhalation giving approximately the same immobility time as imipramine, vaporized dose; for intrinsic activity (full agonist action, dose-effect comparison with imipramine): swimming test, inhaled; for antidepressant activity: vaporized, inhaled for 24 hours (12+12 hours); for isoeffect dose per body weight: versus 30 mg/kg of imipramine
Protocol: 4. For each test, CD-1® (ICR) Specific Pathogen Free NAF mice (16/18 g upon arrival) were used, originating from the supplier facility Charles River Laboratories, Calco, Italy; 5 mice for the control group, 5 mice for the reference test with imipramine, 5 mice for the substance tested in the first 4 tests and then 10 mice for all the other tests. The choice of CD1 mice was determined by the fact that it is considered to be the animal model suitable for performing the swimming test for the evaluation of substances having an antidepressant action.
5. For terpene vaporization, “Elettromatt Turispharma” electric vaporizers were used (PCT/EP 97/01897, inventors Bevilacqua M, Zaccagna C A), heated to a constant temperature of 90° C.
The three groups of mice were placed in three transparent plastic boxes with the size of 150 cm×75 cm and a volume di […] at a controlled temperature (19.0-21.0° C.), in air prefiltered with an HEPA absolute filter without flow, humidity (40-50%) and darkness/light cycle (12 hours/12 hours).
The control group received the carrier (physiological solution) by IP pathway.
The administration path of the substances being considered was intraperitoneal for imipramine and the pulmonary path was used for the terpene substances being considered, always vaporized with the same electric vaporizers.
Reference test substance: imipramine 30 mg/Kg/ip=30.000 mcg/Kg/ip, equal to 0.6 mg per animal, administered 30 minutes before the test.
Subsequent tests were performed with the individual components (35 mg repeated after 12 hours), in pairs (35 mg+35 mg, repeated after 12 hours) and then all three together (35+35+35 mg repeated after 12 hours).
The treatment was performed 30 minutes before the test for the control group and for the imipramine group intraperitoneally. The third group was subject, after the T0 test, to vaporization for 24 hours (12+12 hours) of the anonymous substance being considered.

[1] = cited from earlier work
patients with bulimia = conditions: followed on for two years; cited from earlier work
[2] = in vivo; cited from earlier work
[3] = rat; cited from earlier work
[4] = inhalation for 2 hours during a 50 W workload, healthy volunteers; cited from earlier work
rats = conditions: inhaling, swimming test; cited from earlier work
mouse [5] = conditions: cited from earlier work
[6] = cited from earlier work; remark: listed apart in the source
rat = conditions: cited from earlier work
mouse [7] = conditions: cited from earlier work; remark: listed apart in the source
[8] = 200 and 400 mg/kg orally, mouse

SMILES: CN(C)CCCN1c2ccccc2CCc2ccccc21 [imipramine, imipramine chloride hydrate]
- total mean immobility time (CD1 mice; imipramine 30 mg/Kg ip 30 minutes before the test, mean of all 9 tests, 45 mice): 41.11±16.12
- solubility [1]: 50 mg/mL
- patients with considerable success (patients with bulimia): 19 out of 20

SMILES: C[C@H]1[C@H](C)CC[C@]2(C)CC[C@]3(C)C(=CC(=O)[C@@H]4[C@@]5(C)CC[C@@H](O)[C@](C)(C(=O)O)[C@@H]5CC[C@]43C)[C@H]12 [KBA, 11-keto-beta-boswellic acid]
- brain/plasma ratio [2]: approximately 0.51

SMILES: CC(=O)O[C@@H]1CC[C@@]2(C)[C@@H](CC[C@]3(C)[C@@H]2C(=O)C=C2[C@@H]4[C@@H](C)[C@H](C)CC[C@]4(C)CC[C@]23C)[C@@]1(C)C(=O)O [AKBA, acetyl-11-keto-beta-boswellic acid]
- brain/plasma ratio [2]: ~0.81

SMILES: C=C(C)[C@H]1CC=C(C)CC1 [limonene, (R)-(+)-limonene]
- isoeffect dose per body weight taking into account mean absorption factor (60%) (CD1 mice): 420 mg/kg
- isoeffect dose with respect to imipramine (CD1 mice): 70 mg
- intrinsic activity (full agonist action, dose-effect comparison with imipramine) (CD1 mice): 1
- antidepressant activity (CD1 mice): evident antidepressant activity
- isoeffect dose per body weight (CD1 mice): 700 mg/kg
- oral bioavailability [3]: 43.0%
- pulmonary uptake, of the administered quantity [4]: 70%
- immobility time (rats): reduces significantly the immobility time

SMILES: CC12CCC(CC1)C(C)(C)O2 [1,8-cineol]
- isoeffect dose per body weight taking into account mean absorption factor (60%) (CD1 mice): 420 mg/kg
- isoeffect dose with respect to imipramine (CD1 mice): 70 mg
- intrinsic activity (full agonist action, dose-effect comparison with imipramine) (CD1 mice): 1
- antidepressant activity (CD1 mice): evident antidepressant activity
- isoeffect dose per body weight (CD1 mice): 700 mg/kg
- acute toxicity, oral dose (mouse [5]): 2480 mg/kg
- time to detection in blood after inhaling [6]: 5 min
- time to concentration maximum in blood ([6]; inhaling): ≤ 18 min
- effect of pretreatment with naloxone on anti-nociceptive action (rat; oral dose between 100 and 400 mg/kilograms): not canceled out by pretreatment with naloxone
- anti-nociceptive action (rat; rat): comparable to morphine
- immobility time (mouse [7]; [8]): significant increase in the immobility time
- latency of pentobarbital sleep (mouse [7]; [8]): reduced latency of pentobarbital sleep
- dose observed in the literature (mouse [7]; in the mouse): 200 to 400 mg/kg
- motor coordination in the rotarod test (mouse [7]; orally, mouse): no effects on motor coordination
